Earlier results, collected in patent publication US20230056488A1, “COMPOSITION, ARTICLE AND METHOD FOR AFFECTING A MAMMAL” (COOLHOUSE SOURCING LLC, priority 2020, published 2023).

How the values were obtained:
[1] = oral and parenteral forms
[2] = laboratory and animal research
[3] = test system: ionotropic glutamate receptors
[4] = in vivo

SMILES: C[S@@+](CC[C@H](N)C(=O)[O-])C[C@H]1O[C@@H](n2cnc3c(N)ncnc32)[C@H](O)[C@@H]1O [SAMe, (S)-2-amino-4-((SS)-(((2S,3S,4R,5R)-5-(6-amino-9H-purin-9-yl)-3,4-dihydroxytetrahydrofuran-2-yl)methyl)(methyl)sulfonio)butanoate]
- crossing of the blood-brain barrier / cerebrospinal fluid concentrations [1]: cross the blood-brain barrier and increase concentrations in cerebrospinal fluid

SMILES: CCCCCc1cc(O)c2c(c1)OC(C)(C)[C@@H]1CCC(C)=C[C@@H]21 [THC, tetrahydrocannabinol]
- toxicity to dogs: toxic to dogs

SMILES: CCCc1cc(O)c2c(c1)OC(C)(C)[C@@H]1CCC(C)=C[C@@H]21 [THCV, Tetrahydrocannabivarin]
- anti-inflammatory effects [2]: some anti-inflammatory effects

SMILES: CCNC(=O)CC[C@H](N)C(=O)O [Theanine, theanine]
- binding to ionotropic glutamate receptors (AMPA and kainate receptors; lesser extent NMDA) [3]: micromolar range
- crossing of the blood brain barrier [4]: cross the blood brain barrier (“BBB”) intact
